Data taken from patent publication US12215093B2, “Bicyclic carboxamides and methods of use thereof” (Tempest Therapeutics, Inc., priority 2018, dated 2025).

Key:
[1] = molecular target: EP2 (Homo sapiens, UniProt P43116);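 further: functional calcium flux assay in stably transfected HEK293 cells expressing EP2 coupled via a promiscuous G protein, clytin luminescence read as area under the curve, 30 min compound preincubation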
Method: Each receptor subtype has an additional promiscuous G protein added in order to couple the aforementioned receptor to the calcium signaling pathway. The parental cell line used also expresses a novel variant of clytin, a calcium-activated photo-protein, to enable sensitive luminescent detection. Briefly, cells were plated at 50,000 cells-per-well in black, clear bottom 96-well plates. The plated cells were allowed to sit at room temperature for 30 min prior to transferring to a humidified, 37° C., 5% CO2 incubator for 18 to 24 h. Assay buffer (HBSS with 20 mM HEPES) and loading buffer (assay buffer plus 10 μM coelenterazine) were prepared on the day of the assay. Assays were performed by aspirating media from the assay plate and washing once with assay buffer, then replacing with loading buffer and allowing the cells to incubate for 1.5 h at room temperature. Compounds were prepared in assay buffer at a 3× final concentration in non-binding plates. Compounds were added to the cell plates and incubated for 30 min at room temperature. The prostanoid receptor ligand PGE2 was prepared at a 4× dilution ratio for a final concentration of 10 nM. Plates were run on a Flexstation™ using a 100 ms integration luminescence protocol for a total of 60 sec with ligand addition at 15 sec. Data were obtained from relative light units as measured by area under the curve.

[2] = molecular target: T1, EP4 (Homo sapiens, UniProt P35408); test: Functional calcium flux assay, EP4; format: cell-based; conditions: stably transfected HEK293 cells; PGE2 10 nM; read-out: EP4 Ca2+-flux assay IC50
T1 construct: host or cells: stably transfected HEK293 cells co-expressing a promiscuous G protein and a clytin variant
T1 sequence (P35408 whole entry): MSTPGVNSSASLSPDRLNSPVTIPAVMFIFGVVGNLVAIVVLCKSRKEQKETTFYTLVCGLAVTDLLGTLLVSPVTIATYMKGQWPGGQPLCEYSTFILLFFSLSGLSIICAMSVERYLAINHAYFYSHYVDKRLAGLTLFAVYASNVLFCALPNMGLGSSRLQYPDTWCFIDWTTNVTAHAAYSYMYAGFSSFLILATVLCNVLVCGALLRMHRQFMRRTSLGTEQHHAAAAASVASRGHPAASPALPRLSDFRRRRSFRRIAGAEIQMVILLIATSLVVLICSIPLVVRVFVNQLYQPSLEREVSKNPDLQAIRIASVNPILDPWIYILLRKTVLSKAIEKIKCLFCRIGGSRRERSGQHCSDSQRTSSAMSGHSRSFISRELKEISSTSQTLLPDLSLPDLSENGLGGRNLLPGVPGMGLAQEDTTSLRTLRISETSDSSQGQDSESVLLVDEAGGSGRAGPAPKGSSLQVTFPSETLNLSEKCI

Chain of EP2 (P43116 whole entry): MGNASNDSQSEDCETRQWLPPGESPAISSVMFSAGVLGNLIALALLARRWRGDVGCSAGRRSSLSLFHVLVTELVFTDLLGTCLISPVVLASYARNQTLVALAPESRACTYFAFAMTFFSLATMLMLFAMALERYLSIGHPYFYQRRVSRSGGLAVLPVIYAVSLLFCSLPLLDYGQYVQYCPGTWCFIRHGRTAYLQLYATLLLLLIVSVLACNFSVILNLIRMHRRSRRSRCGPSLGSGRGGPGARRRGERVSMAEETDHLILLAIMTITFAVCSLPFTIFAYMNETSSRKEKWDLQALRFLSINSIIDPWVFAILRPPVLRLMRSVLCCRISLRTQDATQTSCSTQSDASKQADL

**Q.** How did the IC50 [1] turn out when `CCOc1ccc(-c2ccc(Cn3ccc4c(OC)ncc(C(=O)NC5CC6(C5)CC(C(=O)O)C6)c43)cc2)cn1` (centres unmarked) [Example 91, (Sa)-6-(1-(4-(6-ethoxypyridin-3-yl)benzyl)-4-methoxy-1H-pyrrolo[3,2-c]pyridine-7-carboxamido)spiro[3.3]heptane-2-carboxylic acid] was run?
**A.** 59 nM

**Q.** And the IC50 [2]?
**A.** < 1 nM

**Q.** How did the IC50 [1] turn out when `COc1ccc(-c2ccc(Cn3ccc4c(F)ccc(C(=O)NC5CC6(C5)CC(C(=O)O)C6)c43)cc2)cc1` (centres unmarked) [Example 51, (Sa)-6-(4-fluoro-1-((4’-methoxy-[1,1′-biphenyl]-4-yl)methyl)-1H-indole-7-carboxamido)spiro[3.3]heptane-2-carboxylic acid] was run?
**A.** < 25 nM

**Q.** What about the IC50 [2] of the same compound?
**A.** < 1 nM

**Q.** `CCOc1cc(-c2ccc(Cn3ccc4c(F)ccc(C(=O)NC5CC6(C5)CC(C(=O)O)C6)c43)cc2)ccn1` (centres unmarked) [Example 48, (Sa)-6-(1-(4-(2-ethoxypyridin-4-yl)benzyl)-4-fluoro-1H-indole-7-carboxamido)spiro[3.3]heptane-2-carboxylic acid] was tested. Which IC50 [1] did it give?
**A.** 27 nM

**Q.** What about the IC50 [2] of the same compound?
**A.** < 1 nM

**Q.** Which results are given for `COc1cccc(-c2ccc(C(C)n3ccc4c(F)ccc(C(=O)NC5CC6(C5)CC(C(=O)O)C6)c43)cc2)c1` (single isomer, unassigned) [Example 128, (Sa)-6-(4-fluoro-1-((R) or (S)-1-(3′-methoxy-[1,1′-biphenyl]-4-yl)-ethyl)-1H-indole-7-carboxamido)spiro[3.3]heptane-2-carboxylic acid]?
**A.** IC50 [1]: < 25 nM; IC50 [2]: 1.9 nM

**Q.** Which results are given for `COc1c(Cl)cc(C(=O)NC2CC3(CC(CC(=O)O)C3)C2)c2c1cnn2Cc1ccc(-c2ccccc2)cc1` (centres unmarked) [Example 171, (Ra)-2-(6-(1-([1,1′-Biphenyl]-4-ylmethyl)-5-chloro-4-methoxy-1H-indazole-7-carboxamido)spiro[3.3]heptan-2-yl)acetic acid]?
**A.** IC50 [1]: < 25 nM; IC50 [2]: 1.4 nM

**Q.** With `COc1cc(-c2ccc(Cn3ccc4c(Cl)ccc(C(=O)NC5CC6(C5)CC(C(=O)O)C6)c43)cc2)ccn1` (centres unmarked) [Example 69] as the compound, how does the IC50 [1] read?
**A.** 33 nM

**Q.** And the IC50 [2]?
**A.** 2.2 nM

**Q.** How did the IC50 [1] turn out when `CCOc1cc(-c2ccc(C(C)n3ccc4c(F)ccc(C(=O)NC5CC6(C5)CC(C(=O)O)C6)c43)cc2)ccn1` (racemic) [Example 118, (Sa)-6-(1-((racemic)-1-(4-(2-ethoxypyridin-4-yl)phenyl)-ethyl)-4-fluoro-1H-indole-7-carboxamido)spiro[3.3]heptane-2-carboxylic acid] was run?
**A.** 31 nM

**Q.** What about the IC50 [2] of the same compound?
**A.** 2.6 nM

**Q.** For `O=C(O)CC1CC2(C1)CC(NC(=O)c1cc(Cl)c(F)c3cnn(Cc4ccc(-c5ccccc5)cc4)c13)C2` (centres unmarked) [Example 170, (Ra)-2-(6-(1-([1,1′-Biphenyl]-4-ylmethyl)-5-chloro-4-fluoro-1H-indazole-7-carboxamido)spiro[3.3]heptan-2-yl)acetic acid], which IC50 [1] is on record?
**A.** < 25 nM

**Q.** And the IC50 [2]?
**A.** 5.1 nM

**Q.** `CCOc1cc(-c2ccc(C(C)n3ccc4c(F)ccc(C(=O)NC5CC6(C5)CC(C(=O)O)C6)c43)cc2)ccn1` (single isomer, unassigned) [Example 129, (Sa)-6-(1-((R) or (S)-1-(4-(2-ethoxypyridin-4-yl)phenyl)-ethyl)-4-fluoro-1H-indole-7-carboxamido)spiro[3.3]heptane-2-carboxylic acid] was tested. Which IC50 [1] did it give?
**A.** 61 nM

**Q.** What about the IC50 [2] of the same compound?
**A.** 3 nM

**Q.** For `CNC(=O)c1ccc(-c2ccc(Cn3ccc4c(F)ccc(C(=O)NC5CC6(C5)CC(C(=O)O)C6)c43)cc2)cn1` (centres unmarked) [Example 63, (Sa)-6-(4-fluoro-1-(4-(6-(methylcarbamoyl)pyridin-3-yl)benzyl)-1H-indole-7-carboxamido)spiro[3.3]heptane-2-carboxylic acid], which IC50 [1] is on record?
**A.** 90 nM

**Q.** What about the IC50 [2] of the same compound?
**A.** < 1 nM

**Q.** What does the source list for `COc1ccc(C(=O)NC2CC3(CC(CC(=O)O)C3)C2)c2c1cnn2Cc1ccc(-c2ccccc2)cc1` (centres unmarked) [Example 161, (Ra)-2-(6-(1-([1,1′-Biphenyl]-4-ylmethyl)-4-methoxy-1H-indazole-7-carboxamido)spiro[3.3]heptan-2-yl)acetic acid]?
**A.** IC50 [1]: 63 nM; IC50 [2]: < 1 nM

**Q.** `COc1ccc(-c2ccc(C(C)n3ccc4c(F)ccc(C(=O)NC5CC6(C5)CC(C(=O)O)C6)c43)cc2)cn1` (racemic) [Example 119, (Sa)-6-(4-fluoro-1-((racemic)-1-(4-(6-methoxypyridin-3-yl)phenyl)-ethyl)-1H-indole-7-carboxamido)spiro[3.3]heptane-2-carboxylic acid] was tested. Which IC50 [1] did it give?
**A.** 59 nM

**Q.** What about the IC50 [2] of the same compound?
**A.** 3.8 nM

**Q.** With `O=C(NC1CC2(C1)CC(C(=O)O)C2)c1ccc(Cl)c2cnn(Cc3ccc(N4CC5CC5(C(F)F)C4)c(F)c3)c12` (racemic) [Example 76, (Sa)-6-(4-chloro-1-(4-((racemic)-1-(difluoromethyl)-3-azabicyclo[3.1.0]hexan-3-yl)-3-fluorobenzy1)-1H-indazole-7-carboxamido)spiro[3.3]heptane-2-carboxylic acid] as the compound, how does the IC50 [1] read?
**A.** 56 nM

**Q.** What about the IC50 [2] of the same compound?
**A.** < 1 nM

**Q.** Which results are given for `O=C(NC1CC2(C1)CC(C(=O)O)C2)c1cc(OC(F)F)cc2cnn(Cc3ccc(-c4ccccc4)cc3)c12` (centres unmarked) [Example 163]?
**A.** IC50 [1]: 30 nM; IC50 [2]: < 1 nM

**Q.** What does the source list for `O=C(NC1CC2(C1)CC(C(=O)O)C2)c1ccc(F)c2ccn(Cc3ccc(-c4ccnc(C(F)F)c4)cc3)c12` (centres unmarked) [Example 64, (Sa)-6-(1-(4-(2-(difluoromethyl)pyridin-4-yl)benzyl)-4-fluoro-1H-indole-7-carboxamido)spiro[3.3]heptane-2-carboxylic acid]?
**A.** IC50 [1]: 48 nM; IC50 [2]: < 1 nM

**Q.** What does the source list for `COc1cc(-c2ccc(Cn3ccc4c(F)ccc(C(=O)NC5CC6(C5)CC(C(=O)O)C6)c43)cc2)ccc1F` (centres unmarked) [Example 46, (Sa)-6-(4-fluoro-1-((4’-fluoro-3’-methoxy-[1,1′-biphenyl]-4-yl)methyl)-1H-indole-7-carboxamido)spiro[3.3]heptane-2-carboxylic acid]?
**A.** IC50 [1]: 88 nM; IC50 [2]: < 1 nM

**Q.** `O=C(O)CC1CC2(C1)CC(NC(=O)c1ccc(Cl)c3cnn(Cc4ccc(-c5ccccc5F)cc4)c13)C2` (centres unmarked) [Example 143, (Ra)-2-(6-(4-Chloro-1-((2′-fluoro-[1,1′-biphenyl]-4-yl)methyl)-1H-indazole-7-carboxamido)spiro[3.3]heptan-2-yl)acetic acid] was tested. Which IC50 [1] did it give?
**A.** 35 nM

**Q.** And the IC50 [2]?
**A.** < 1 nM

**Q.** Which IC50 [1] does the source give for `O=C(NC1CC2(C1)CC(C(=O)O)C2)c1ccc(Cl)c2cnn(Cc3ccc(C4=CCCC4)c(F)c3)c12` (centres unmarked) [Example 82, (Sa)-6-(4-chloro-1-(4-(cyclopent-1-en-1-yl)-3-fluorobenzyl)-1H-indazole-7-carboxamido)spiro[3.3]heptane-2-carboxylic acid] here?
**A.** < 25 nM

**Q.** And the IC50 [2]?
**A.** < 1 nM

**Q.** With `COc1cc(-c2ccc(Cn3ncc4cc(Cl)cc(C(=O)NC5CC6(C5)CC(C(=O)O)C6)c43)cc2F)ccn1` (centres unmarked) [Example 154, (Sa)-6-(5-Chloro-1-(3-fluoro-4-(2-methoxypyridin-4-yl)benzyl)-1H-indazole-7-carboxamido)spiro[3.3]heptane-2-carboxylic acid] as the compound, how does the IC50 [1] read?
**A.** < 25 nM

**Q.** What about the IC50 [2] of the same compound?
**A.** 2.8 nM

**Q.** For `COc1ccc2cc(-c3ccc(Cn4ncc5c(Cl)ccc(C(=O)NC6CC7(CC(CC(=O)O)C7)C6)c54)cc3)ccc2n1` (centres unmarked) [Example 146, (Ra)-2-(6-(4-Chloro-1-(4-(2-methoxyquinolin-6-yl)benzyl)-1H-indazole-7-carboxamido)spiro[3.3]heptan-2-yl)acetic acid], which IC50 [1] is on record?
**A.** 82 nM

**Q.** What about the IC50 [2] of the same compound?
**A.** < 1 nM

**Q.** Which results are given for `COc1ncc(-c2ccc(C(C)n3ccc4c(F)ccc(C(=O)NC5CC6(C5)CC(C(=O)O)C6)c43)cc2)cc1Cl` (racemic) [Example 120, (Sa)-6-(1-((racemic)-1-(4-(5-chloro-6-methoxypyridin-3-yl)phenyl)-ethyl)-4-fluoro-1H-indole-7-carboxamido)spiro[3.3]heptane-2-carboxylic acid]?
**A.** IC50 [1]: < 25 nM; IC50 [2]: 11 nM

**Q.** For `CCOc1ncc(C(=O)NC2CC3(C2)CC(C(=O)O)C3)c2c1ccn2Cc1ccc(-c2ccccc2)cc1` (centres unmarked) [Example 90, (Sa)-6-(1-([1,1′-biphenyl]-4-ylmethyl)-4-ethoxy-1H-pyrrolo[3,2-c]pyridine-7-carboxamido)spiro[3.3]heptane-2-carboxylic acid], which IC50 [1] is on record?
**A.** 57 nM

**Q.** And the IC50 [2]?
**A.** < 1 nM

**Q.** Which IC50 [1] does the source give for `COc1ccc2cc(Cn3ccc4c(F)ccc(C(=O)NC5CC6(C5)CC(C(=O)O)C6)c43)ccc2c1` (centres unmarked) [Example 38, (Sa)-6-(4-fluoro-1-((6-methoxynaphthalen-2-yl)methyl)-1H-indole-7-carboxamido)spiro[3.3]heptane-2-carboxylic acid] here?
**A.** < 25 nM

**Q.** What about the IC50 [2] of the same compound?
**A.** < 1 nM

**Q.** Which results are given for `COc1cccc(-c2ccc(Cn3ncc4c(Cl)ccc(C(=O)NC5CC6(CC(CC(=O)O)C6)C5)c43)cc2)n1` [Example 149, (R)-2-(6-(4-Chloro-1-(4-(6-methoxypyridin-2-yl)benzyl)-1H-indazole-7-carboxamido)spiro[3.3]heptan-2-yl)acetic acid]?
**A.** IC50 [1]: 38 nM; IC50 [2]: < 1 nM

**Q.** With `COc1cc(C#N)cc(-c2ccc(C(C)n3ncc4cccc(C(=O)NC5CC6(C5)CC(C(=O)O)C6)c43)cc2)c1` (single isomer, unassigned) [Example 126, (Sa)-6-(1-((R) or (S)-1-(3′-cyano-5′-methoxy-[1,1′-biphenyl]-4-yl)-ethyl)-1H-indazole-7-carboxamido)spiro[3.3]heptane-2-carboxylic acid] as the compound, how does the IC50 [1] read?
**A.** < 25 nM

**Q.** What about the IC50 [2] of the same compound?
**A.** < 1 nM

**Q.** `CCOc1nccc(-c2ccc(Cn3ncc4c(Cl)ccc(C(=O)NC5CC6(C5)CC(C(=O)O)C6)c43)cc2)n1` (centres unmarked) [Example 84, (Sa)-6-(4-chloro-1-(4-(2-ethoxypyrimidin-6-yl)benzyl)-1H-indazole-7-carboxamido)spiro[3.3]heptane-2-carboxylic acid] was tested. Which IC50 [1] did it give?
**A.** < 25 nM

**Q.** What about the IC50 [2] of the same compound?
**A.** < 1 nM

**Q.** With `COc1ccc2ccc(Cn3ccc4c(F)ccc(C(=O)NC5CC6(C5)CC(C(=O)O)C6)c43)cc2c1` (centres unmarked) [Example 40, (Sa)-6-(4-fluoro-1-((7-methoxynaphthalen-2-yl)methyl)-1H-indole-7-carboxamido)spiro[3.3]heptane-2-carboxylic acid] as the compound, how does the IC50 [1] read?
**A.** < 25 nM

**Q.** What about the IC50 [2] of the same compound?
**A.** < 1 nM

**Q.** Which results are given for `O=C(NC1CC2(C1)CC(C(=O)O)C2)c1ccc(F)c2ccn(Cc3ccc4c(Br)cccc4c3)c12` (centres unmarked) [Example 43]?
**A.** IC50 [1]: < 25 nM; IC50 [2]: < 1 nM
